What was measured:
Type in all cases: cell-based, human
[1] = system: fibroblasts of patients suffering from moderate β-oxidation deficiency; test: Palmitate β-oxidation, correction of deficiency, pooled statements over deficiency types; conditions: for reduction in dose by a factor, combination vs compound alone: 30 μM RSV + 35 μM BZ vs 75 μM RSV / 400 μM BZ; for reduction in dose by a factor, combination vs compound alone / concentration at which the compound alone corrects the deficiency: VLCAD and CPT2 deficiency; for concentration at which the compound alone corrects the deficiency: compound used alone; for factor by which combining the two molecules decreases the dose needed to correct the deficiency: conclusion over three types of moderate β-oxidation enzyme deficiencies
Experimental: The fibroblasts are grown at 37° C. in complete Ham's F10 medium, i.e., supplemented with 12% fetal calf serum, 100 U/ml penicillin, and 0.1 mg/ml streptomycin, at a concentration of 70,000 cells per ml and per well in 24-well culture dishes. Twenty-four hours after seeding, stock solutions of RSV (0.2 M) and of BZ (0.4 M) are prepared in DMSO in order to prepare the various cell treatment media. For the treatment, the culture medium is discarded and replaced with 1 ml of complete Ham's F10 medium supplemented with one of the molecules of interest at one of the following concentrations, 75 μM RSV, or 400 μM BZ, or 20 μM RSV, or 30 μM RSV, or 25 μM RSV, or 35 μM RSV, or the culture medium is discarded and replaced with 1 ml of complete Ham's F10 medium supplemented with a combination of the two molecules of interest at the following concentrations: (20 μM RSV+[…]), or (30 μM RSV+[…]). Additional wells receive 1 ml of complete medium supplemented with the diluent of the molecules of interest only (<0.05% DMSO). Each of these treatment conditions is applied in triplicate (3 wells) for each patient, in each experiment. The 24-well dishes are then incubated at 37° C. for 48 hours. Thus, the cells of each individual studied are treated in all of the conditions listed, in parallel, for 48 hours, before the measurement of palmitate β-oxidation. The fatty acid used is palmitate labeled with tritium at positions 9 and 10 (^3H-Pal). A stock solution is prepared beforehand by mixing 100 μl of ^3H-Pal, 130 μl of 50 mM “cold” palmitate and 13 ml of 25 mg/ml BSA solution. A ^3H-Pal/BSA (bovine serum albumin) complex ensuring good palmitate solubilization is thus obtained (final palmitate concentration: 500 μM). The test of ^3H-palmitate oxidation is carried out on fibroblasts seeded in a 24-well plate. The culture medium is first discarded and the wells are rinsed three times with PBS. A 125 μM ^3H-Pal working solution is prepared, from the 500 μM stock solution, in PBS with Ca/Mg, supplemented with 1 mM carnitine. 200 μl of t[…]-Pal solution is introduced into each well and the plates are incubated at 37° C. for 2 hours. During this time, three counting vials are prepared for the measurement of specific radioactivity (RDA, in CPM/nmol of fatty acids) of the reaction medium. These vials contain 5 ml of scintillation fluid, 1.5 ml of distilled water, and 20 μl of ^3H-Pal/BSA solution. The scintillation fluid converts the radioactive energy of ^3H into light energy, which thus makes it possible to measure radioactivity, expressed in counts per minute (CPM), using a liquid scintillation counter. At the end of 2 hours of incubation, 200 μl is taken from each well and mixed with 200 μl of 10% trichloroacetic acid (TCA). This strong acid ensures the precipitation of unmetabolized BSA/AG complex. The tubes are then centrifuged at 3300 rpm for 10 minutes at 4° C. After centrifugation, 350 μl of supernatant is taken and mixed with […] of 6 M NaOH in order to neutralize the pH. The total volume, or 450 μl, is transferred to an ion-exchange resin column which retains the tritiated water. These columns are then transferred to scintillation vials. The tritiated water is then eluted with 1.7 ml of distilled water. 5 ml of scintillation fluid is added to the tritiated water and the vials are placed in the liquid scintillation counter.

[2] = system: fibroblasts of patients suffering from moderate CPT2 deficiency; test: Tritiated palmitate β-oxidation (FAO) in fibroblasts after 48 h treatment, CPT2 deficiency; conditions: for % increase in fatty acid oxidation (FAO): 48 h, vs carrier
Experimental: (§1) Cellular palmitate β-oxidation activity can be measured with any suitable technology known to persons skilled in the art. That can in particular be achieved by using tritiated palmitate complexed with BSA (bovine albumin serum), which is added to the cells to be tested. After incubation, the addition of trichloroacetic acid (TCA) in a supernatant sample makes it possible to precipitate unmetabolized complexes (BSA/tritiated palmitate), which are excluded by centrifugation. The measurement of tritium present in the supernatant after centrifugation and exclusion of unmetabolized complexes (BSA/tritiated palmitate) makes it possible to determine the amount of palmitate metabolized by the cells. A precise example of a protocol for implementing this process for measuring palmitate β-oxidation activity is described in Example 1. The fibroblasts are grown at 37° C. in complete Ham's F10 medium, i.e., supplemented with 12% fetal calf serum, 100 U/ml penicillin, and 0.1 mg/ml streptomycin, at a concentration of 70,000 cells per ml and per well in 24-well culture dishes. Twenty-four hours after seeding, stock solutions of RSV (0.2 M) and of BZ (0.4 M) are prepared in DMSO in order to prepare the various cell treatment media. For the treatment, the culture medium is discarded and replaced with 1 ml of complete Ham's F10 medium supplemented with one of the molecules of interest at one of the following concentrations, 75 μM RSV, or 400 μM BZ, or 20 μM RSV, or 30 μM RSV, […], […], or the culture medium is discarded and replaced with 1 ml of complete Ham's F10 medium supplemented with a combination of the two molecules of interest at the following concentrations: ([…]), or ([…]). Additional wells receive 1 ml of complete medium supplemented with the diluent of the molecules of interest only (<0.05% DMSO). Each of these treatment conditions is applied in triplicate (3 wells) for each patient, in each experiment. The 24-well dishes are then incubated at 37° C. for 48 hours. Thus, the cells of each individual studied are treated in all of the conditions listed, in parallel, for 48 hours, before the measurement of palmitate β-oxidation. The fatty acid used is palmitate labeled with tritium at positions 9 and 10 (^3H-Pal). A stock solution is prepared beforehand by mixing 100 μl of ^3H-Pal, 130 μl of 50 mM “cold” palmitate and 13 ml of 25 mg/ml BSA solution. A ^3H-Pal/BSA (bovine serum albumin) complex ensuring good palmitate solubilization is thus obtained (final palmitate concentration: 500 μM). The test of ^3H-palmitate oxidation is carried out on fibroblasts seeded in a 24-well plate. The culture medium is first discarded and the wells are rinsed three times with PBS. A 125 μM ^3H-Pal working solution is prepared, from the 500 μM stock solution, in PBS with Ca/Mg, supplemented with 1 mM carnitine. 200 μl of t[…]-Pal solution is introduced into each well and the plates are incubated at 37° C. for 2 hours. During this time, three counting vials are prepared for the measurement of specific radioactivity (RDA, in CPM/nmol of fatty acids) of the reaction medium. These vials contain 5 ml of scintillation fluid, 1.5 ml of distilled water, and 20 μl of ^3H-Pal/BSA solution. The scintillation fluid converts the radioactive energy of ^3H into light energy, which thus makes it possible to measure radioactivity, expressed in counts per minute (CPM), using a liquid scintillation counter. At the end of 2 hours of incubation, 200 μl is taken from each well and mixed with 200 μl of 10% trichloroacetic acid (TCA). This strong acid ensures the precipitation of unmetabolized BSA/AG complex. The tubes are then centrifuged at 3300 rpm for 10 minutes at 4° C. After centrifugation, 350 μl of supernatant is taken and mixed with […] of 6 M NaOH in order to neutralize the pH. The total volume, or 450 μl, is transferred to an ion-exchange resin column which retains the tritiated water. These columns are then transferred to scintillation vials. […]

[3] = system: fibroblasts of patients suffering from moderate VLCAD deficiency; test: Tritiated palmitate β-oxidation (FAO) in fibroblasts after 48 h treatment, VLCAD deficiency; conditions: for % increase in fatty acid oxidation (FAO): 48 h, vs carrier
Experimental: as §1

## CC(C)(Oc1ccc(CCNC(=O)c2ccc(Cl)cc2)cc1)C(=O)O [BZ, 2-(4-(2-((4-chlorobenzoyl)amino)ethyl)phenoxy)-2-methylpropanoic acid]
[1]
  reduction in dose by a factor, combination vs compound alone: 11.4
  concentration at which the compound alone corrects the deficiency: 400 µM
  factor by which combining the two molecules decreases the dose needed to correct the deficiency: 10
[2]; patient DIA Ke, 400 μM BZ alone
  % increase in fatty acid oxidation (FAO): 62%
[2]; patient DIA Ke, Condition 1, 25 μM BZ alone
  % increase in fatty acid oxidation (FAO), Measured: 0%
[2]; patient DIA Ke, Condition 2, 35 μM BZ alone
  % increase in fatty acid oxidation (FAO), Measured: 6%
[2]; patient alpha, 400 μM BZ alone
  % increase in fatty acid oxidation (FAO): 88%
[2]; patient alpha, Condition 1, 25 μM BZ alone
  % increase in fatty acid oxidation (FAO), Measured: 0%
[2]; patient alpha, Condition 2, 35 μM BZ alone
  % increase in fatty acid oxidation (FAO), Measured: 6%
[3]; patient E3536, 400 μM BZ alone
  % increase in fatty acid oxidation (FAO): 128%
[3]; patient E3536, Condition 1, 25 μM BZ alone
  % increase in fatty acid oxidation (FAO), Measured: 7%
[3]; patient E3536, Condition 2, 35 μM BZ alone
  % increase in fatty acid oxidation (FAO), Measured: 20%
[3]; patient beta, 400 μM BZ alone
  % increase in fatty acid oxidation (FAO): 83%
[3]; patient beta, Condition 1, 25 μM BZ alone
  % increase in fatty acid oxidation (FAO), Measured: 1%
[3]; patient beta, Condition 2, 35 μM BZ alone
  % increase in fatty acid oxidation (FAO), Measured: 8%

## Oc1ccc(/C=C/c2cc(O)cc(O)c2)cc1 [RSV, 5-[(E)-2-(4-hydroxyphenyl)-ethenyl]benzene-1,3-diol]
[1]
  reduction in dose by a factor, combination vs compound alone: 2.5
  concentration at which the compound alone corrects the deficiency: 75 µM
  factor by which combining the two molecules decreases the dose needed to correct the deficiency: 2
[2]; patient DIA Ke, 75 μM RSV alone
  % increase in fatty acid oxidation (FAO): 44%
[2]; patient DIA Ke, Condition 1, 20 μM RSV alone
  % increase in fatty acid oxidation (FAO), Measured: 49%
[2]; patient DIA Ke, Condition 2, 30 μM RSV alone
  % increase in fatty acid oxidation (FAO), Measured: 66%
[2]; patient alpha, 75 μM RSV alone
  % increase in fatty acid oxidation (FAO): 100%
[2]; patient alpha, Condition 1, 20 μM RSV alone
  % increase in fatty acid oxidation (FAO), Measured: 39%
[2]; patient alpha, Condition 2, 30 μM RSV alone
  % increase in fatty acid oxidation (FAO), Measured: 48%
[3]; patient E3536, 75 μM RSV alone
  % increase in fatty acid oxidation (FAO): 145%
[3]; patient E3536, Condition 1, 20 μM RSV alone
  % increase in fatty acid oxidation (FAO), Measured: 81%
[3]; patient E3536, Condition 2, 30 μM RSV alone
  % increase in fatty acid oxidation (FAO), Measured: 106%
[3]; patient beta, 75 μM RSV alone
  % increase in fatty acid oxidation (FAO): 67%
[3]; patient beta, Condition 1, 20 μM RSV alone
  % increase in fatty acid oxidation (FAO), Measured: 22%
[3]; patient beta, Condition 2, 30 μM RSV alone
  % increase in fatty acid oxidation (FAO), Measured: 43%

— patent US10376484B2, “Combination of bezafibrate and of resveratrol or resveratrol derivatives for the treatment and prevention of diseases involving a mitochondrial energy dysfunction” (priority 2013, dated 2019)
